Experimental data published in patent publication US5972898A, “3',3-N-bis-substituted macrolide LHRH antagonists” (Abbott Laboratories, priority 1998, dated 1999).

Key:
[1] = biological target: T1, LHRH rat pituitary receptor (Rattus norvegicus, UniProt P30969); experiment: LHRH rat pituitary receptor binding (pKI); conditions: in vitro; for Ki: read-out: pKI (receptor binding affinity) (converted)
T1 construct: from tissue; host or cells: rat pituitary
T1 sequence (P30969 1-327): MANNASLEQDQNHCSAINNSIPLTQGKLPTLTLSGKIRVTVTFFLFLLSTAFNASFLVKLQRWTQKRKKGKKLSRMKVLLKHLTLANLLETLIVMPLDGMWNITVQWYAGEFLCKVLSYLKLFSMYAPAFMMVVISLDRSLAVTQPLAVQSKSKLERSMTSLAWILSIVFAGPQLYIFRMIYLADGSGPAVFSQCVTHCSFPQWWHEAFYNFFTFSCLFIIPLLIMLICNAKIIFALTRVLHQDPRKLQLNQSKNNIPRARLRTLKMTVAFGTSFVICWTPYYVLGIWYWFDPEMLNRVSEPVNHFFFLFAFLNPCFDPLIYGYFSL
Protocol: Representative compounds of the present invention were evaluated in in vitro tests for LHRH rat pituitary receptor binding (pKI) and for LH inhibition from rat pituitary cells for antagonist potency (pA2). […] The receptor binding affinity (pKI) is the negative equilibrium dissociation constants.

rat pituitary cells = biological target: T2, rat pituitary cells (Rattus norvegicus, UniProt P30969); experiment: LH inhibition from rat pituitary cells for antagonist potency (pA2); format: cell-based; conditions: negative log of antagonist concentration shifting the leuprolide response curve to two-fold higher concentration
T2 construct: endogenous in cells; host or cells: rat pituitary cells
T2 sequence (P30969 1-327): T1 sequence (P30969 1-327)
Protocol: Representative compounds of the present invention were evaluated in in vitro tests for LHRH rat pituitary receptor binding (pKI) and for LH inhibition from rat pituitary cells for antagonist potency (pA2). The tests employed the methods detailed in F. Haviv, et al. J. Med. Chem., 2340-2344 (1989). The receptor binding affinity (pKI) is the negative equilibrium dissociation constants.
The pA2 value is the negative logarithm of the concentration of antagonist which shifts the response curve produced by the agonist leuprolide to two-fold higher concentration. Leuprolide is the LHRH agonist having the structure pyro-Glu^1 -His^2 -Trp^3 -Ser^4 -Tyr^5 -D-Leu^6 -Leu^7 -Arg^8 -Pro^9 -NHEt and is disclosed and claimed in U.S. Pat. No. 4,005,063. Typically pA2 values of 7.0 or greater are indicative of good LHRH antagonist potency.

Compound | Ki [1] | Kb (rat pituitary cells) | pKI (receptor binding affinity) [1] | pA2 (rat pituitary cells)
CC[C@H]1OC(=O)[C@H](C)[C@@H](O[C@H]2C[C@@](C)(OC)[C@@H](O)[C@H](C)O2)[C@H](C)[C@@H](O[C@@H]2O[C@H](C)C[C@H](N(C(C)C)C3CCC3)[C@H]2O)[C@](C)(OC)C[C@@H](C)C(=O)[C@H](C)[C@H]2N(CCc3ccc(Cl)cc3)C(=O)O[C@]12C [Example 5, 3',3'-N-Bisdesmethyl-3'-N-cyclobutyl-3'-N-isopropyl-11-deoxy-11-[carboxy-(4-chlorophenethylamino)]-6-O-methyl-erythromycin A 11,12-(cyclic carbamate)] | 0.832 nM | 0.832 nM |  | 
CC[C@H]1OC(=O)[C@H](C)[C@@H](O[C@H]2C[C@@](C)(OC)[C@@H](O)[C@H](C)O2)[C@H](C)[C@@H](O[C@@H]2O[C@H](C)C[C@H](N(C3CCC3)C3CCC3)[C@H]2O)[C@](C)(OC)C[C@@H](C)C(=O)[C@H](C)[C@H]2N(CCc3ccc(Cl)cc3)C(=O)O[C@]12C [Example 4, 3',3'-N-Bisdesmethyl-3',3'-N-biscyclobutyl-11-deoxy-11-[carboxy-(4-chlorophenethylamino)]-6-O-methyl-erythromycin A 11,12-(cyclic carbamate)] | 2.4 nM | 0.126 nM |  | 
CC[C@H]1OC(=O)[C@H](C)[C@@H](O[C@H]2C[C@@](C)(OC)[C@@H](O)[C@H](C)O2)[C@H](C)[C@@H](O[C@@H]2O[C@H](C)C[C@H](N(C3CCC3)C3CCC3)[C@H]2O)[C@](C)(OC)C[C@@H](C)C(=O)[C@H](C)[C@H]2N(CCc3ccc(Cl)c(Cl)c3)C(=O)O[C@]12C [Example 2] | 3.16 nM | 5.37 nM |  | 
CC[C@H]1OC(=O)[C@H](C)[C@@H](O[C@H]2C[C@@](C)(OC)[C@@H](O)[C@H](C)O2)[C@H](C)[C@@H](O[C@@H]2O[C@H](C)C[C@H](N(CC3CC3)CC3CC3)[C@H]2O)[C@](C)(OC)C[C@@H](C)C(=O)[C@H](C)[C@H]2N(CCc3ccc(Cl)c(Cl)c3)C(=O)O[C@]12C [Example 1] | 18.6 nM |  |  | 
CC[C@H]1OC(=O)[C@H](C)[C@@H](O[C@H]2C[C@@](C)(OC)[C@@H](O)[C@H](C)O2)[C@H](C)[C@@H](O[C@@H]2O[C@H](C)C[C@H](N(C3CCC3)C3CCC3)[C@H]2O)[C@](C)(OC)C[C@@H](C)C(=O)[C@H](C)[C@H]2N(CCc3ccc(Cl)c(F)c3)C(=O)O[C@]12C [Example 12, 3',3'-N-Bisdesmethyl-3',3'-N-biscyclobutyl-11-deoxy-11-[carboxy-(4-chloro-3-fluorophenethylamino)]-O-methl-erythromycin A 11,12-(cyclic carbamate)] | 1 nM |  |  | 

Further lines, results first:

Ki [1] | Kb (rat pituitary cells) | pKI (receptor binding affinity) [1] | pA2 (rat pituitary cells) | Compound
0.251 nM | 0.759 nM |  |  | CC[C@H]1OC(=O)[C@H](C)[C@@H](O[C@H]2C[C@@](C)(OC)[C@@H](O)[C@H](C)O2)[C@H](C)[C@@H](O[C@@H]2O[C@H](C)C[C@H](N(C3CCC3)C3CCC3)[C@H]2O)[C@](C)(OC)C[C@@H](C)C(=O)[C@H](C)[C@H]2N(CCc3ccc(F)c(Cl)c3)C(=O)O[C@]12C [Example 14, 3',3'-N-Bisdesmethyl-3',3'-N-biscyclobutyl-11-deoxy-11-[carboxy-(3-chloro-4-fluorophenethylamino)]-O-methyl-erythromycin A 11,12-(cyclic carbamate)]
 |  | 9.40 | 8.34 | 3',3'-N-Bisdesmethyl-3',3'-N-biscyclobutyl-11-deoxy-11-[carboxy-(3,4-difluorophenethylamino)]-6-O-methyl-erythromycin A 11,12-(cyclic carbamate) [Example 18]
3.16 nM | 1.55 nM |  |  | CC[C@H]1OC(=O)[C@H](C)[C@@H](O[C@H]2C[C@@](C)(OC)[C@@H](O)[C@H](C)O2)[C@H](C)[C@@H](O[C@@H]2O[C@H](C)C[C@H](N(CC3CC3)CC3CC3)[C@H]2O)[C@](C)(OC)C[C@@H](C)C(=O)[C@H](C)[C@H]2N(CCc3ccc(F)c(F)c3)C(=O)O[C@]12C [Example 17, 3',3'-N-Bisdesmethyl-3',3'-N-biscyclopropylmethyl-11-deoxy-11-[carboxy-(3,4-difluorophenethylamino)]-6-O-methyl-erytromycin A 11,12-(cyclic carbamate)]
1.15 nM | 0.295 nM |  |  | CC[C@H]1OC(=O)[C@H](C)[C@@H](O[C@H]2C[C@@](C)(OC)[C@@H](O)[C@H](C)O2)[C@H](C)[C@@H](O[C@@H]2O[C@H](C)C[C@H](N(CC3CC3)CC3CC3)[C@H]2O)[C@](C)(OC)C[C@@H](C)C(=O)[C@H](C)[C@H]2N(CCc3ccc(Cl)c(F)c3)C(=O)O[C@]12C [Example 13, 3',3'-N-Bisdesmethyl-3',3'-N-biscyclopropylmethyl-11-deoxy-11-[carboxy-(4-chloro-3-fluorophenethylamino)]-6-O-methyl-erythromycin A 11,12-(cyclic carbamate)]
 |  | 9.08 |  | CC[C@H]1OC(=O)[C@H](C)[C@@H](O[C@H]2C[C@@](C)(OC)[C@@H](O)[C@H](C)O2)[C@H](C)[C@@H](O[C@@H]2O[C@H](C)C[C@H](N(CC3CC3)C3CCC3)[C@H]2O)[C@](C)(OC)C[C@@H](C)C(=O)[C@H](C)[C@H]2N(CCc3ccc(F)c(Cl)c3)C(=O)O[C@]12C [Example 19, 3',3'-N-Bisdesmethyl-3'-N-cyclobutyl-3'-N-cyclopropylmethyl-11-deoxy-11-[carboxy-(3-chloro-4-fluorophenethylamino)]-6-O-methyl-erythromycin A 11,12-(cyclic carbamate)]
1.26 nM |  |  |  | CC[C@H]1OC(=O)[C@H](C)[C@@H](O[C@H]2C[C@@](C)(OC)[C@@H](O)[C@H](C)O2)[C@H](C)[C@@H](O[C@@H]2O[C@H](C)C[C@H](N(CC3CC3)CC3CC3)[C@H]2O)[C@](C)(OC)C[C@@H](C)C(=O)[C@H](C)[C@H]2N(CCc3ccc(F)c(Cl)c3)C(=O)O[C@]12C [Example 15, 3',3'-N-Bisdesmethyl-3',3'-N-biscyclopropylmethyl-11-deoxy-11-[carboxy-(3-chloro-4-fluorophenetlamino)]-6-O-methyl-erythromycin A 11,12-(cyclic carbamate)]
